# Assay results as given in paper PMC5218480 (PLoS ONE, 2017).
# System: MV-4-11 cells
# Experiment: Gene expression microarray analysis (Affymetrix PrimeView) and GSEA
# Assay type: cell-based, human
# Parameters: RFU PODN (11730768_x_at) / Fold change /veh PODN (11730768_x_at) / RFU LINC00158 (11744669_a_at) / Fold change /veh LINC00158 (11744669_a_at) / RFU DUSP10 (11751237_a_at) / Fold change /veh DUSP10 (11751237_a_at) / RFU ID3 (11757404_x_at) / Fold change /veh ID3 (11757404_x_at) / RFU PLEKHG5 (11737974_s_at) / Fold change /veh PLEKHG5 (11737974_s_at) / RFU LRRC4B (11730491_at) / Fold change /veh LRRC4B (11730491_at) / RFU GIMAP4 (11747438_a_at) / Fold change /veh GIMAP4 (11747438_a_at) / RFU KRT8 (11758183_x_at) / Fold change /veh KRT8 (11758183_x_at) / RFU CNN1 (11734310_a_at) / Fold change /veh CNN1 (11734310_a_at) / RFU VPS37D (11726825_at) / Fold change /veh VPS37D (11726825_at) / RFU C10orf10 (11716522_x_at) / Fold change /veh C10orf10 (11716522_x_at) / RFU KIR2DL2 /// KIR2DL4 /// KIR2DL5A /// KIR2DL5B /// KIR2DS1 /// KIR2DS2 /// KIR2DS3 /// KIR2DS4 /// KIR3DL3 /// KIR3DL3 /// KIR3DS1 (11738374_at) / Fold change /veh KIR2DL2 /// KIR2DL4 /// KIR2DL5A /// KIR2DL5B /// KIR2DS1 /// KIR2DS2 /// KIR2DS3 /// KIR2DS4 /// KIR3DL3 /// KIR3DL3 /// KIR3DS1 (11738374_at) / RFU C1QL1 (11718748_at) / Fold change /veh C1QL1 (11718748_at) / RFU TMPRSS4 (11747572_a_at) / Fold change /veh TMPRSS4 (11747572_a_at) / RFU HAMP (11756126_x_at) / Fold change /veh HAMP (11756126_x_at) / RFU RNFT2 (11725882_a_at) / Fold change /veh RNFT2 (11725882_a_at) / RFU NR4A2 (11747474_a_at) / Fold change /veh NR4A2 (11747474_a_at) / RFU ABCC12 (11746883_a_at) / Fold change /veh ABCC12 (11746883_a_at) / RFU TMEM136 (11760407_x_at) / Fold change /veh TMEM136 (11760407_x_at) / RFU CLDN22 /// WWC2 (11732394_at) / Fold change /veh CLDN22 /// WWC2 (11732394_at) / RFU HLA-DPB1 (11760878_x_at) / Fold change /veh HLA-DPB1 (11760878_x_at) / RFU SPINT1 (11716480_a_at) / Fold change /veh SPINT1 (11716480_a_at) / RFU GAP43 (11754022_s_at) / Fold change /veh GAP43 (11754022_s_at) / RFU A4GNT (11735810_at) / Fold change /veh A4GNT (11735810_at) / RFU PRB3 (11715151_x_at) / Fold change /veh PRB3 (11715151_x_at) / RFU TUBB4B (11761932_at) / Fold change /veh TUBB4B (11761932_at) / RFU CAPN14 (11732068_a_at) / Fold change /veh CAPN14 (11732068_a_at) / RFU TMCC2 (11721928_a_at) / Fold change /veh TMCC2 (11721928_a_at) / RFU IRGQ (11745062_a_at) / Fold change /veh IRGQ (11745062_a_at) / RFU FAM174B (11720279_a_at) / Fold change /veh FAM174B (11720279_a_at) / RFU TMPRSS4 (11748680_a_at) / Fold change /veh TMPRSS4 (11748680_a_at) / RFU FAM212B (11763350_a_at) / Fold change /veh FAM212B (11763350_a_at) / RFU PLEKHG5 (11743358_a_at) / Fold change /veh PLEKHG5 (11743358_a_at) / RFU ZSCAN30 (11745921_a_at) / Fold change /veh ZSCAN30 (11745921_a_at) / RFU CMKLR1 (11741424_a_at) / Fold change /veh CMKLR1 (11741424_a_at) / RFU LOC101060620 /// MAPK8IP1 (11723275_at) / Fold change /veh LOC101060620 /// MAPK8IP1 (11723275_at) / RFU SPTSSB (11747773_x_at) / Fold change /veh SPTSSB (11747773_x_at) / RFU PRSS12 (11739890_at) / Fold change /veh PRSS12 (11739890_at) / RFU BIN1 (11741810_x_at) / Fold change /veh BIN1 (11741810_x_at) / RFU WNT11 (11732464_a_at) / Fold change /veh WNT11 (11732464_a_at) / RFU C10orf10 (11716521_a_at) / Fold change /veh C10orf10 (11716521_a_at) / RFU C5orf56 (11738089_at) / Fold change /veh C5orf56 (11738089_at) / RFU CYB561 (11721691_x_at) / Fold change /veh CYB561 (11721691_x_at) / RFU ANKRD19P (11752326_a_at) / Fold change /veh ANKRD19P (11752326_a_at) / RFU OR2T12 /// OR2T33 /// OR2T8 (11738714_s_at) / Fold change /veh OR2T12 /// OR2T33 /// OR2T8 (11738714_s_at) / RFU VCAN (11748164_a_at) / Fold change /veh VCAN (11748164_a_at) / RFU JSRP1 (11732532_at) / Fold change /veh JSRP1 (11732532_at) / RFU KRTAP10-11 (11738290_x_at) / Fold change /veh KRTAP10-11 (11738290_x_at) / RFU MYO3A (11730013_a_at) / Fold change /veh MYO3A (11730013_a_at) / RFU EBF3 (11725865_a_at) / Fold change /veh EBF3 (11725865_a_at) / RFU CAMK2N1 (11719241_x_at) / Fold change /veh CAMK2N1 (11719241_x_at) / RFU C5orf56 (11738088_a_at) / Fold change /veh C5orf56 (11738088_a_at) / RFU OLFML3 (11715873_a_at) / Fold change /veh OLFML3 (11715873_a_at) / RFU LOC100653217 /// NTM (11731650_a_at) / Fold change /veh LOC100653217 /// NTM (11731650_a_at) / RFU MAPK11 (11762145_a_at) / Fold change /veh MAPK11 (11762145_a_at) / RFU FIZ1 (11724087_x_at) / Fold change /veh FIZ1 (11724087_x_at) / RFU OASL (11726364_x_at) / Fold change /veh OASL (11726364_x_at) / RFU SOX15 (11748057_x_at) / Fold change /veh SOX15 (11748057_x_at) / RFU CD79A (11719716_a_at) / Fold change /veh CD79A (11719716_a_at) / RFU HIST1H1D (11736915_at) / Fold change /veh HIST1H1D (11736915_at) / RFU CASKIN2 (11723855_a_at) / Fold change /veh CASKIN2 (11723855_a_at) / RFU LOC730098 (11760151_x_at) / Fold change /veh LOC730098 (11760151_x_at) / RFU OR4N2 (11742367_at) / Fold change /veh OR4N2 (11742367_at) / RFU PRRT2 (11749266_a_at) / Fold change /veh PRRT2 (11749266_a_at) / RFU SNX32 (11753110_a_at) / Fold change /veh SNX32 (11753110_a_at) / RFU CDHR5 (11726645_a_at) / Fold change /veh CDHR5 (11726645_a_at) / RFU RCAN1 (11760418_a_at) / Fold change /veh RCAN1 (11760418_a_at) / RFU FAM167A (11723789_a_at) / Fold change /veh FAM167A (11723789_a_at) / RFU FAM26E (11764081_at) / Fold change /veh FAM26E (11764081_at) / RFU ISYNA1 (11749810_s_at) / Fold change /veh ISYNA1 (11749810_s_at) / RFU ACY1 (11761880_at) / Fold change /veh ACY1 (11761880_at) / RFU 11764098_at / Fold change /veh 11764098_at / RFU SAMD14 (11745864_x_at) / Fold change /veh SAMD14 (11745864_x_at) / RFU NPB (11741838_a_at) / Fold change /veh NPB (11741838_a_at) / RFU TMPRSS6 (11731388_a_at) / Fold change /veh TMPRSS6 (11731388_a_at) / RFU KRTAP10-2 (11738614_at) / Fold change /veh KRTAP10-2 (11738614_at) / RFU ARHGAP8 /// PRR5-ARHGAP8 (11727945_x_at) / Fold change /veh ARHGAP8 /// PRR5-ARHGAP8 (11727945_x_at) / RFU KRTAP5-7 /// NADSYN1 (11734609_at) / Fold change /veh KRTAP5-7 /// NADSYN1 (11734609_at) / RFU RASL12 (11751679_a_at) / Fold change /veh RASL12 (11751679_a_at) / RFU CDKN2B (11736163_a_at) / Fold change /veh CDKN2B (11736163_a_at) / RFU PRF1 (11729649_at) / Fold change /veh PRF1 (11729649_at) / RFU, ZNF638 /// ZNF638-IT1 / Fold change vs veh, ZNF638 /// ZNF638-IT1 / RFU, PANK3 / Fold change vs veh, PANK3 / RFU, SH3YL1 / Fold change vs veh, SH3YL1 / RFU, ZEB2 / Fold change vs veh, ZEB2 / RFU, NRIP1 / Fold change vs veh, NRIP1 / RFU, PTTG1IP / Fold change vs veh, PTTG1IP / RFU, CAPN2 / Fold change vs veh, CAPN2 / RFU, MED14 / Fold change vs veh, MED14 / RFU, SNORA58 / Fold change vs veh, SNORA58 / RFU, C1orf63 / Fold change vs veh, C1orf63 / RFU, LRRFIP1 / Fold change vs veh, LRRFIP1 / RFU, NDUFAF7 / Fold change vs veh, NDUFAF7 / RFU, SLC12A2 / Fold change vs veh, SLC12A2 / RFU, IBTK / Fold change vs veh, IBTK / RFU, ESF1 / Fold change vs veh, ESF1 / Fold change vs veh, TMEM50B / RFU, TAOK1 / Fold change vs veh, TAOK1 / RFU, ACBD3 / Fold change vs veh, ACBD3 / RFU, TMA16 / Fold change vs veh, TMA16 / RFU, RWDD3 / Fold change vs veh, RWDD3 / RFU, BCAT1 / Fold change vs veh, BCAT1 / RFU, EDEM3 / Fold change vs veh, EDEM3 / RFU, TMEM33 / Fold change vs veh, TMEM33 / RFU, WDR75 / Fold change vs veh, WDR75 / RFU, AHCTF1 / Fold change vs veh, AHCTF1 / RFU, TFRC / Fold change vs veh, TFRC / RFU, ZDHHC17 / Fold change vs veh, ZDHHC17 / RFU, NOM1 / Fold change vs veh, NOM1 / RFU, ARL8B / Fold change vs veh, ARL8B / RFU, ZBTB11 / Fold change vs veh, ZBTB11 / RFU, TAMM41 / Fold change vs veh, TAMM41 / RFU, KIAA1704 /// LOC100996395 / Fold change vs veh, KIAA1704 /// LOC100996395 / RFU, ING1 / Fold change vs veh, ING1 / RFU, TRMT61B / Fold change vs veh, TRMT61B / RFU, FUBP3 / Fold change vs veh, FUBP3 / RFU, TP53 / Fold change vs veh, TP53 / RFU, TNKS2 / Fold change vs veh, TNKS2 / RFU, ZFP14 / Fold change vs veh, ZFP14 / RFU, ACTR2 / Fold change vs veh, ACTR2 / RFU, PPP3R1 / Fold change vs veh, PPP3R1 / RFU, PIK3R1 / Fold change vs veh, PIK3R1 / RFU, HNRNPA1 / Fold change vs veh, HNRNPA1 / RFU, RNF170 / Fold change vs veh, RNF170 / RFU, ZNF28 / Fold change vs veh, ZNF28 / RFU, RNGTT / Fold change vs veh, RNGTT / RFU, OGT / Fold change vs veh, OGT / RFU, BRD1 / Fold change vs veh, BRD1 / RFU, MARS / Fold change vs veh, MARS / RFU, ZNF655 / Fold change vs veh, ZNF655 / RFU, FAHD1 / Fold change vs veh, FAHD1 / RFU, BDP1 / Fold change vs veh, BDP1 / RFU, LRRCC1 / Fold change vs veh, LRRCC1 / RFU, ARID1A / Fold change vs veh, ARID1A / RFU, ZNF146 / Fold change vs veh, ZNF146 / RFU, ZNF330 / Fold change vs veh, ZNF330 / RFU, GPN3 / Fold change vs veh, GPN3 / RFU, C9orf123 / Fold change vs veh, C9orf123 / RFU, N4BP2L2 / Fold change vs veh, N4BP2L2 / RFU, ARFIP1 / Fold change vs veh, ARFIP1 / RFU, FAM179B / Fold change vs veh, FAM179B / RFU, BCL10 / Fold change vs veh, BCL10 / RFU, UHRF1BP1L / Fold change vs veh, UHRF1BP1L / RFU, BET1 / Fold change vs veh, BET1 / RFU, CNOT2 / Fold change vs veh, CNOT2 / RFU, ZNF268 / Fold change vs veh, ZNF268 / Fold change vs veh, ZNF507 / RFU, DGCR2 / Fold change vs veh, DGCR2 / RFU, WDSUB1 / Fold change vs veh, WDSUB1 / Fold change vs veh, HSP90B1 /// MIR3652 / RFU, ADSS / Fold change vs veh, ADSS / RFU, GK / Fold change vs veh, GK / RFU, ZNF148 / Fold change vs veh, ZNF148 / RFU, TAF9 / Fold change vs veh, TAF9 / RFU, SLC1A5 / Fold change vs veh, SLC1A5 / RFU, SLMO2 / Fold change vs veh, SLMO2 / RFU, ABCC4 / Fold change vs veh, ABCC4 / RFU, LOC101060439 /// RAP1B / Fold change vs veh, LOC101060439 /// RAP1B / RFU, RFX7 / Fold change vs veh, RFX7 / RFU, GTPBP10 / Fold change vs veh, GTPBP10 / RFU, CNEP1R1 / Fold change vs veh, CNEP1R1 / RFU, BIVM-ERCC5 /// ERCC5 / Fold change vs veh, BIVM-ERCC5 /// ERCC5 / RFU, ILF3 / Fold change vs veh, ILF3 / RFU 11762660_at / Fold change /veh 11762660_at / RFU VCAN (11757783_s_at) / Fold change /veh VCAN (11757783_s_at) / RFU DDX43 (11728927_at) / Fold change /veh DDX43 (11728927_at) / RFU KRT8 (11758188_x_at) / Fold change /veh KRT8 (11758188_x_at) / RFU NKD1 (11759106_at) / Fold change /veh NKD1 (11759106_at) / RFU SRD5A1 (11742802_a_at) / Fold change /veh SRD5A1 (11742802_a_at) / RFU TPSAB1 /// TPSB2 (11721975_s_at) / Fold change /veh TPSAB1 /// TPSB2 (11721975_s_at) / RFU GSTM3 (11746129_a_at) / Fold change /veh GSTM3 (11746129_a_at) / RFU IL23R (11737362_x_at) / Fold change /veh IL23R (11737362_x_at) / RFU TMEM51 (11727254_a_at) / Fold change /veh TMEM51 (11727254_a_at) / RFU PIWIL2 (11732686_x_at) / Fold change /veh PIWIL2 (11732686_x_at) / RFU ORM1 (11744905_x_at) / Fold change /veh ORM1 (11744905_x_at) / RFU CCDC152 (11743942_at) / Fold change /veh CCDC152 (11743942_at) / RFU ECM1 (11717891_a_at) / Fold change /veh ECM1 (11717891_a_at) / RFU IL23R (11748794_a_at) / Fold change /veh IL23R (11748794_a_at) / RFU TNFAIP8L3 (11732012_x_at) / Fold change /veh TNFAIP8L3 (11732012_x_at) / RFU MBOAT4 (11741988_at) / Fold change /veh MBOAT4 (11741988_at) / RFU 11764193_at / Fold change /veh 11764193_at / RFU TMEM53 (11763286_at) / Fold change /veh TMEM53 (11763286_at) / RFU MAGEB2 (11727129_at) / Fold change /veh MAGEB2 (11727129_at) / RFU TMEM200A (11744735_a_at) / Fold change /veh TMEM200A (11744735_a_at) / RFU CCDC152 (11751479_a_at) / Fold change /veh CCDC152 (11751479_a_at) / RFU FAM211A (11726209_a_at) / Fold change /veh FAM211A (11726209_a_at) / RFU RGS16 (11746705_a_at) / Fold change /veh RGS16 (11746705_a_at) / RFU VCAN (11755009_s_at) / Fold change /veh VCAN (11755009_s_at) / RFU RHOB (11743442_s_at) / Fold change /veh RHOB (11743442_s_at) / RFU RGS16 (11720943_a_at) / Fold change /veh RGS16 (11720943_a_at) / RFU RGS16 (11720944_at) / Fold change /veh RGS16 (11720944_at) / RFU, VPS4B / Fold change vs veh, VPS4B / RFU, CREB1 / Fold change vs veh, CREB1 / RFU, DNAJC13 / Fold change vs veh, DNAJC13 / RFU, GNAQ / Fold change vs veh, GNAQ / RFU, CDK5R1 / Fold change vs veh, CDK5R1 / RFU, ZRANB3 / Fold change vs veh, ZRANB3 / RFU, CUL4A / Fold change vs veh, CUL4A / RFU, CCNY / Fold change vs veh, CCNY / RFU, UFL1 / Fold change vs veh, UFL1 / RFU, COG3 / Fold change vs veh, COG3 / RFU, DIAPH2 / Fold change vs veh, DIAPH2 / RFU, SKA2 / Fold change vs veh, SKA2 / RFU, AFF3 / Fold change vs veh, AFF3 / RFU, LMF1 / Fold change vs veh, LMF1 / RFU, IPO11 / Fold change vs veh, IPO11 / RFU, DFFB / Fold change vs veh, DFFB / RFU, FOXP1 / Fold change vs veh, FOXP1 / RFU, CARD8 / Fold change vs veh, CARD8 / RFU, STRN3 / Fold change vs veh, STRN3 / RFU, ADK / Fold change vs veh, ADK / RFU, RASSF2 / Fold change vs veh, RASSF2 / RFU, WIPF1 / Fold change vs veh, WIPF1 / RFU, LARP1B / Fold change vs veh, LARP1B / RFU, RASA1 / Fold change vs veh, RASA1 / RFU, RB1 / Fold change vs veh, RB1 / RFU, PPFIA1 / Fold change vs veh, PPFIA1 / RFU, MAT2A / Fold change vs veh, MAT2A / RFU, CCT5 / Fold change vs veh, CCT5 / RFU, WDR92 / Fold change vs veh, WDR92 / RFU, CUX1 / Fold change vs veh, CUX1 / RFU, TTC7A / Fold change vs veh, TTC7A / RFU, TMEM135 / Fold change vs veh, TMEM135 / RFU, DEPTOR / Fold change vs veh, DEPTOR / RFU, CPM / Fold change vs veh, CPM / RFU, DNAJB6 / Fold change vs veh, DNAJB6 / RFU, CACNA2D3 / Fold change vs veh, CACNA2D3 / RFU, DTX4 / Fold change vs veh, DTX4 / RFU, TFCP2 / Fold change vs veh, TFCP2 / RFU, GMCL1 /// GMCL1P1 / Fold change vs veh, GMCL1 /// GMCL1P1 / RFU, AEBP2 / Fold change vs veh, AEBP2 / RFU, SNHG1 /// SNORD22 /// SNORD25 /// SNORD26 /// SNORD27 /// SNORD28 /// SNORD29 /// SNORD31 / Fold change vs veh, SNHG1 /// SNORD22 /// SNORD25 /// SNORD26 /// SNORD27 /// SNORD28 /// SNORD29 /// SNORD31 / Fold change (Aza/veh), C12orf56 (ProbeSet 11735607_a_at) / Fold change (ACY-1035/veh), C12orf56 (ProbeSet 11735607_a_at) / Fold change (Aza/veh), FGFR1OP (ProbeSet 11751329_s_at) / Fold change (ACY-1035/veh), FGFR1OP (ProbeSet 11751329_s_at) / Fold change (Aza/veh), VPS36 (ProbeSet 11739960_a_at) / Fold change (ACY-1035/veh), VPS36 (ProbeSet 11739960_a_at) / RFU SYPL1 (11715823_x_at) / Fold change /veh SYPL1 (11715823_x_at) / RFU IGFBP7 (11715501_s_at) / Fold change /veh IGFBP7 (11715501_s_at) / RFU REEP3 (11722064_at) / Fold change /veh REEP3 (11722064_at) / RFU IGLL1 (11728026_x_at) / Fold change /veh IGLL1 (11728026_x_at): dose or concentration left out as unconfirmed
# Details: ProbeSet 11755070_a_at; LIST D
structure (smiles),measurement,value
Nc1ccc(-c2cccs2)cc1NC(=O)c1ccc2c(c1)cc(C1CC1)n2CCN1CCOCC1 [ACY-1035],"Fold change vs veh, CARD8",0.85
